Patent US20050124637A1, “Compounds and compositions as inhibitors of receptor tyrosine kinase activity” (IRM LLC, priority 2003, published 2005)

What was measured:
Abl = biological target: T1, Abl (Homo sapiens, UniProt P00519); test: Upstate KinaseProfiler radio-enzymatic filter binding assay, Abl; assay type: biochemical; settings: 10 μM compound; read-out: percentage inhibition, Abl
T1 construct: purchased Upstate
Method: (§1) Compounds of the invention are assessed for their ability to inhibit individual members of a panel of kinases (a partial, non-limiting list of kinases includes: cSRC, Lck, FGFR3, Flt3, TrkB and PFGFRα). The compounds are tested in duplicates at a final concentration of 10 μM following this generic protocol. Note that the kinase buffer composition and the substrates vary for the different kinases included in the “Upstate KinaseProfiler™” panel. Kinase buffer (2.5 μL, 10×-containing MnCl2 when required), active kinase (0.001-0.01 Units; 2.51 μL), specific or Poly(Glu4-Tyr) peptide (5-500 μM or 0.01 mg/ml) in kinase buffer and kinase buffer (50 μM; 5 μL) are mixed in an eppendorf on ice. A Mg/ATP mix (10 μL; 67.5 (or 33.75) mM MgCl2, 450 (or 225) μM ATP and 1 μCi/μl [γ-^32P]-ATP (3000 Ci/mmol)) is added and the reaction is incubated at about 30° C. for about 10 minutes. […] The assay squares are transferred to a scintillation vial, 5 ml scintillation cocktail are added and ^32P incorporation (cpm) to the peptide substrate is quantified with a Beckman scintillation counter. Percentage inhibition is calculated for each reaction.

c-Src = biological target: T2, c-Src (Homo sapiens, UniProt P12931); test: Upstate KinaseProfiler radio-enzymatic filter binding assay, c-Src; assay type: biochemical; settings: 10 μM compound; read-out: percentage inhibition, c-Src
T2 construct: purchased Upstate
Method: (§2) Compounds of the invention are assessed for their ability to inhibit individual members of a panel of kinases (a partial, non-limiting list of kinases includes: cSRC, Lck, FGFR3, Flt3, TrkB and PFGFRα). The compounds are tested in duplicates at a final concentration of 10 μM following this generic protocol. Note that the kinase buffer composition and the substrates vary for the different kinases included in the “Upstate KinaseProfiler™” panel. Kinase buffer (2.5 μL, 10×-containing MnCl2 when required), active kinase (0.001-0.01 Units; 2.51 μL), specific or Poly(Glu4-Tyr) peptide (5-500 μM or 0.01 mg/ml) in kinase buffer and kinase buffer (50 μM; 5 μL) are mixed in an eppendorf on ice. A Mg/ATP mix (10 μL; 67.5 (or 33.75) mM MgCl2, 450 (or 225) μM ATP and 1 μCi/μl [γ-^32P]-ATP (3000 Ci/mmol)) is added and the reaction is incubated at about 30° C. for about 10 minutes. The reaction mixture is spotted (20 μL) onto a 2 cm×2 cm P81 (phosphocellulose, for positively charged peptide substrates) or Whatman No. 1 (for Poly (Glu4-Tyr) peptide substrate) paper square. The assay squares are washed 4 times, for 5 minutes each, with 0.75% phosphoric acid and washed once with acetone for 5 minutes. The assay squares are transferred to a scintillation vial, 5 ml scintillation cocktail are added and ^32P incorporation (cpm) to the peptide substrate is quantified with a Beckman scintillation counter. Percentage inhibition is calculated for each reaction.

Bmx = biological target: T3, Bmx (Homo sapiens, UniProt P51813); test: Upstate KinaseProfiler radio-enzymatic filter binding assay, Bmx; assay type: biochemical; settings: 10 μM compound; read-out: percentage inhibition, Bmx
T3 construct: purchased Upstate
T3 sequence (P51813 1-675): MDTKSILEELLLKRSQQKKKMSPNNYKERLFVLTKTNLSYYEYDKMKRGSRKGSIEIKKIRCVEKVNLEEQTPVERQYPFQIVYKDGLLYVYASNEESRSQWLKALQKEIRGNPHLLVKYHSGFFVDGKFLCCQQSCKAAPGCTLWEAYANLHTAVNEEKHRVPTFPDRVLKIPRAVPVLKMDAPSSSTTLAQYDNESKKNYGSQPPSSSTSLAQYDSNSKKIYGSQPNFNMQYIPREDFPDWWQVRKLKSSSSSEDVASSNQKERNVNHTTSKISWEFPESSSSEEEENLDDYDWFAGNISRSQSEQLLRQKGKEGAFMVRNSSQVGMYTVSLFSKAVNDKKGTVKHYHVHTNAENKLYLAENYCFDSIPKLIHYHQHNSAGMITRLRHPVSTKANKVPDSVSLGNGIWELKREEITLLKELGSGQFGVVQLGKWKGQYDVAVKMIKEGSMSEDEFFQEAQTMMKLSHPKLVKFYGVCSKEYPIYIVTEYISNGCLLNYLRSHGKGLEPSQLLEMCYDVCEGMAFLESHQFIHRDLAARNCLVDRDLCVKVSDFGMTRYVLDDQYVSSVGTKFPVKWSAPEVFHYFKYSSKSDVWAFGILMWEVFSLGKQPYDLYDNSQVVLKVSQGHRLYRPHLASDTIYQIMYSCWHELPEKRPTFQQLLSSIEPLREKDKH
Method: as §2

TrkB = biological target: T4, TrkB (Homo sapiens, UniProt Q16620); test: Upstate KinaseProfiler radio-enzymatic filter binding assay, TrkB; assay type: biochemical; settings: 10 μM compound; read-out: percentage inhibition, TrkB
T4 construct: purchased Upstate
Method: as §2

Lck = biological target: T5, Lck (Homo sapiens, UniProt P06239); test: Upstate KinaseProfiler radio-enzymatic filter binding assay, Lck; assay type: biochemical; settings: 10 μM compound; read-out: percentage inhibition, Lck
T5 construct: purchased Upstate
Method: as §2

Flt3 = biological target: T6, Flt3 (Homo sapiens, UniProt P36888); test: Upstate KinaseProfiler radio-enzymatic filter binding assay, Flt3; assay type: biochemical; settings: 10 μM compound; read-out: percentage inhibition, Flt3
T6 construct: purchased Upstate
T6 sequence (P36888 27-993): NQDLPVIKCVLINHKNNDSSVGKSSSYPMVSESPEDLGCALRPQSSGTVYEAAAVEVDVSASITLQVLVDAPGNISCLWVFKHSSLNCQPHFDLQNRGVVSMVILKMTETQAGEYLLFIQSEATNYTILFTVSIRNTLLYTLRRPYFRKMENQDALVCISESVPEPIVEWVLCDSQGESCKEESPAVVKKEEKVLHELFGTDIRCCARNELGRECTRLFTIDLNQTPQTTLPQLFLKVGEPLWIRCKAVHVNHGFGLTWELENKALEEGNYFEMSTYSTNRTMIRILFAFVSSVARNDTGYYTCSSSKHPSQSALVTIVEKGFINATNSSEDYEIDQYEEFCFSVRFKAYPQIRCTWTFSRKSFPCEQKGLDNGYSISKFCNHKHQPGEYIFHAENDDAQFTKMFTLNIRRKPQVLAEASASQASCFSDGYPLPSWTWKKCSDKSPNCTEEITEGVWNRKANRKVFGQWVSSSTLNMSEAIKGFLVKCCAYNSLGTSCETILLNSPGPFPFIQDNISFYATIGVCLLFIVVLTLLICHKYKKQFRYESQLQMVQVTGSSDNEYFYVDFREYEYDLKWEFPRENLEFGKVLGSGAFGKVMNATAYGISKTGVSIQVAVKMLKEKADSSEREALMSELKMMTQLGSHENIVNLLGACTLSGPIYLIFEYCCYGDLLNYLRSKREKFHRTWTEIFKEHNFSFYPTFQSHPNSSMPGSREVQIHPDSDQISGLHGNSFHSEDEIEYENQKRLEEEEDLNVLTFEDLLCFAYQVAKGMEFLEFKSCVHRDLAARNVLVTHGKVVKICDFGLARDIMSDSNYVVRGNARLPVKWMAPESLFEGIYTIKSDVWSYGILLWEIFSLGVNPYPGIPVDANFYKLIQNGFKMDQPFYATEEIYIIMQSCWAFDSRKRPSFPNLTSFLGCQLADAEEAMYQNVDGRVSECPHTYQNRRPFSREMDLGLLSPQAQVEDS
Method: as §2

Rsk1 = biological target: T7, Rsk1 (Homo sapiens, UniProt Q15418); test: Upstate KinaseProfiler radio-enzymatic filter binding assay, Rsk1; assay type: biochemical; settings: 10 μM compound; read-out: percentage inhibition, Rsk1
T7 construct: purchased Upstate
Method: as §1

FGFR3 = biological target: T8, FGFR3 (Homo sapiens, UniProt P22607); test: Upstate KinaseProfiler radio-enzymatic filter binding assay, FGFR3; assay type: biochemical; settings: 10 μM compound; read-out: percentage inhibition, FGFR3
T8 construct: purchased Upstate
Method: as §1

Ba/F3-Flt3-ITD cells = test: Ba/F3-Flt3-ITD cell proliferation/cytotoxicity (Yo-Pro); assay type: cell-based; settings: Ba/F3 cells dependent on mutant Flt3, 48 hours, read-out: IC50 in the assay described by example 14
Text: Compounds that have differential activity (more than or equal to 10 fold difference in sensitivity between Flt3+ cell lines and Flt3− cell lines are selected for further study.
The cell lines used for the initial screening are sub-lines of Ba/F3 cells that are engineered to over-express mutant or wild-type (non-mutated) Flt3 following infection with a retrovirus expressing appropriate Flt3 cDNAs. The parent cell line, Ba/F3 is dependent on interleukin-3 for proliferation, and when deprived of IL-3, the cells rapidly cease proliferation and die. The retrovirus expresses Flt3 from the retrovirual LTR and the neo gene from an IRES site. Ba/F3 cells are selected in G418 and analyzed for expression of Flt3 by fluorescence activated cell sorting (FACS). Cell lines with two different Flt3 mutations are used. One mutant expresses a Flt-3 that has a 14 amino acid duplication in the juxtamembrane domain encoded by exon 11, the specific duplication being . . . VDFREYEYDLKWEF . . . […]
Yo-Pro-1 iodide (Molecular Probes) is added to the cells at a final concentration of 2.5 μM in NaCl/Na-citrate buffer. The cells are incubated with Yo-Pro for 10 minutes at room temperature and then read on a fluorimeter for determination of cytotoxicity. Next, the cells are lysed with NP40/EDTA/EGTA buffer, incubated at room temperature for 90 minutes and read for the determination of proliferation. […]

purified GST-Flt-3 = biological target: T9, purified GST-Flt-3 (Homo sapiens, UniProt P36888); test: Flt-3 tyrosine protein kinase assay, 33P incorporation from γ-33P-ATP into poly-EY; assay type: biochemical; settings: purified GST-Flt-3, 10 μM ATP; read-out: IC50 in the assay described in example 13
T9 sequence (P36888 27-993): T6 sequence (P36888 27-993)
Method: The activity is assayed in the presence or absence of different concentrations of inhibitors, by measuring the incorporation of ^33P from γ-^33P-ATP into appropriate substrates.
Tyrosine protein kinase assay with purified GST-Flt-3 is carried out in a final volume of 40 μL containing 500 ng of enzyme in kinase buffer (30 mM Tris-HCl (pH7.5), 3 mM MnCl2, 15 mM MgCl2, 1.5 mM DTT, 15 μM Na3VO4, 7.5 mg/ml PEG, 0.25 μM poly-EY(Glu, Tyr), 1% DMSO (at highest concentration of compound), 10 μM ATP and γ-^33P-ATP (0.1 μCi)). Two solutions are made: the first solution of 10 μl contains the Flt-3 enzyme and the inhibitor. The second solution contains the substrate (poly-EY), ATP, and γ-^33P-ATP in 30 μl of kinase buffer. Both solutions are mixed on 96-well PVDF filter plates (Millipore, Bedford, Mass., USA), previously wetted with 70% ethanol and rinsed with 1M Tris (7.4). The reaction is incubated at room temperature for 20 minutes, stopped with 0.1% phosphoric acid and then filtered through the plate using a vacuum manifold, allowing the substrate to bind to the membrane. The plates are then washed 5 times with 0.1% phosphoric acid, mounted in Packard TopCount 96-well adapter plate, and 50 μL of Microscint™ (Packard) is added to each well before counting. […]

T5 sequence (P06239 whole entry): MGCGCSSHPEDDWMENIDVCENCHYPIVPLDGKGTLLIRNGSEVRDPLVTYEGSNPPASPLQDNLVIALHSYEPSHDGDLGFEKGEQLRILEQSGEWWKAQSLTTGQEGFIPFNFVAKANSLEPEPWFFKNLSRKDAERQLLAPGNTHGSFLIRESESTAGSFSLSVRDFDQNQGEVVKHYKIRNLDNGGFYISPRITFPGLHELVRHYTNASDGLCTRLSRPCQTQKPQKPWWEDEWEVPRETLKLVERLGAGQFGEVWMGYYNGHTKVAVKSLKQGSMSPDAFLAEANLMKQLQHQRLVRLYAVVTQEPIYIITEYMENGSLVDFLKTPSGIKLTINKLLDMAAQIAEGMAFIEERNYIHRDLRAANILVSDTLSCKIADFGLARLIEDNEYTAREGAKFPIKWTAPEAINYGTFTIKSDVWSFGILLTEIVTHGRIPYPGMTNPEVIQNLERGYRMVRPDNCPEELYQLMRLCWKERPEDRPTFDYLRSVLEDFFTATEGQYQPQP
T4 sequence (Q16620 32-822): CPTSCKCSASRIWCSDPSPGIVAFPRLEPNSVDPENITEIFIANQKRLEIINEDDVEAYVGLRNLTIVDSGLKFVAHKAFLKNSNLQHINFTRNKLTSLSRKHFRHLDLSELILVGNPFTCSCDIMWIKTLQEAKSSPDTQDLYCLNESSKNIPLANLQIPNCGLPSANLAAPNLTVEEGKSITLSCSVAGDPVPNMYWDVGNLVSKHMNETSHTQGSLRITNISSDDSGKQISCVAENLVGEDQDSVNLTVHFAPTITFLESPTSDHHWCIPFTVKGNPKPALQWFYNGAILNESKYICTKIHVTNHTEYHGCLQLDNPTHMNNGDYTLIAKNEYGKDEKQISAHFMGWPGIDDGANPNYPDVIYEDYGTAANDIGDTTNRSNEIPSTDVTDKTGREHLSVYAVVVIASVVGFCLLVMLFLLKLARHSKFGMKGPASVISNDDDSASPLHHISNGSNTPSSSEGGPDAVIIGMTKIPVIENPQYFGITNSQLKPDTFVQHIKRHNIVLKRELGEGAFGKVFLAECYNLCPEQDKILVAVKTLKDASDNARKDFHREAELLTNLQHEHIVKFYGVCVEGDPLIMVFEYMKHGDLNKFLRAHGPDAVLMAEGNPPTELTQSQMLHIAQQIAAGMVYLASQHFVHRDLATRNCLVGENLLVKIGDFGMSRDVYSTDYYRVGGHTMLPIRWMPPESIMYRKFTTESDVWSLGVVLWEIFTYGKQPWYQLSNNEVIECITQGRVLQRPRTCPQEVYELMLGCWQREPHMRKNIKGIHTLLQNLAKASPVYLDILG
T2 sequence (P12931 whole entry): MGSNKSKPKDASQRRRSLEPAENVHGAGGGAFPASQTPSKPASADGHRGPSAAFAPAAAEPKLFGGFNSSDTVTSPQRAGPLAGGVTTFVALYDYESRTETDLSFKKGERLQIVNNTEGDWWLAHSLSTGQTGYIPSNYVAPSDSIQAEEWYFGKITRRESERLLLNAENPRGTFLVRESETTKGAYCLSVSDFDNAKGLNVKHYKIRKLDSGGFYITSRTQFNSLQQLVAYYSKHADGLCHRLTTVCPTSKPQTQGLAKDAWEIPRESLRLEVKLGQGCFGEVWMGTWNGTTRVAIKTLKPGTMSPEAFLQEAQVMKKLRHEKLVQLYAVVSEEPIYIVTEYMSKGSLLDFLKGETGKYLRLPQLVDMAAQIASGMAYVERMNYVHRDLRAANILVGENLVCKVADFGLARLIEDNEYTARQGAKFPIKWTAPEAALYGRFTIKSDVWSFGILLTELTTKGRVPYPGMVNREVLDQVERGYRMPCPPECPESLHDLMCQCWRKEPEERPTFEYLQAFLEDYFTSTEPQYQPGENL
T1 sequence (P00519 whole entry, species assumed): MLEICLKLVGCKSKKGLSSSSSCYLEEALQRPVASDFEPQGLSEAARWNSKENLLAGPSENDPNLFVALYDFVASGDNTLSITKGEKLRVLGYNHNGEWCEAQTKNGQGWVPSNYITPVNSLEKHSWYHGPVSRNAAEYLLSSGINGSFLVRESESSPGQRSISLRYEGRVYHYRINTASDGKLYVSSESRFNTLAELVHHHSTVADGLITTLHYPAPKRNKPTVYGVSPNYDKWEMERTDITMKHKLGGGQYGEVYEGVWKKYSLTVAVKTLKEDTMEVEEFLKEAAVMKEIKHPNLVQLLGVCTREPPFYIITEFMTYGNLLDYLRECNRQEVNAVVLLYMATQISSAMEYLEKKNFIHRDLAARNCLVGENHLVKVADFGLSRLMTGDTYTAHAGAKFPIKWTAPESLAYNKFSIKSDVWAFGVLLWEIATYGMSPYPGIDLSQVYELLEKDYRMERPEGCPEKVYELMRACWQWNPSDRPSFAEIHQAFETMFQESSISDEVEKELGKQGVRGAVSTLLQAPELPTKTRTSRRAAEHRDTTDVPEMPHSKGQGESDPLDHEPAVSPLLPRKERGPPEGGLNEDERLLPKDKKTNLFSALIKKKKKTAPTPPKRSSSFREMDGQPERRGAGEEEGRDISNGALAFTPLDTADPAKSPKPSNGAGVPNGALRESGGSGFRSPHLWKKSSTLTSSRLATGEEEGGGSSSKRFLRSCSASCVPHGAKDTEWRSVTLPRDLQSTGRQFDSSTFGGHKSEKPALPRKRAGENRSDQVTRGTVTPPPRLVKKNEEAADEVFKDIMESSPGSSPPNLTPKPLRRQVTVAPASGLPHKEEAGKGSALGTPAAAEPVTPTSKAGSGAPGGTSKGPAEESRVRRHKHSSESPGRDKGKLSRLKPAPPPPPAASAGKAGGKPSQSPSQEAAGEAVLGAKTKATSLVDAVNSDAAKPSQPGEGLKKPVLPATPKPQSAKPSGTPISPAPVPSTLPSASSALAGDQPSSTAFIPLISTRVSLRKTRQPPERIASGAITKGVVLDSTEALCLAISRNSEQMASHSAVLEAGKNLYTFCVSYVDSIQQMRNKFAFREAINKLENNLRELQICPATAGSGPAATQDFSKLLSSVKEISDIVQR
T7 sequence (Q15418 whole entry, species assumed): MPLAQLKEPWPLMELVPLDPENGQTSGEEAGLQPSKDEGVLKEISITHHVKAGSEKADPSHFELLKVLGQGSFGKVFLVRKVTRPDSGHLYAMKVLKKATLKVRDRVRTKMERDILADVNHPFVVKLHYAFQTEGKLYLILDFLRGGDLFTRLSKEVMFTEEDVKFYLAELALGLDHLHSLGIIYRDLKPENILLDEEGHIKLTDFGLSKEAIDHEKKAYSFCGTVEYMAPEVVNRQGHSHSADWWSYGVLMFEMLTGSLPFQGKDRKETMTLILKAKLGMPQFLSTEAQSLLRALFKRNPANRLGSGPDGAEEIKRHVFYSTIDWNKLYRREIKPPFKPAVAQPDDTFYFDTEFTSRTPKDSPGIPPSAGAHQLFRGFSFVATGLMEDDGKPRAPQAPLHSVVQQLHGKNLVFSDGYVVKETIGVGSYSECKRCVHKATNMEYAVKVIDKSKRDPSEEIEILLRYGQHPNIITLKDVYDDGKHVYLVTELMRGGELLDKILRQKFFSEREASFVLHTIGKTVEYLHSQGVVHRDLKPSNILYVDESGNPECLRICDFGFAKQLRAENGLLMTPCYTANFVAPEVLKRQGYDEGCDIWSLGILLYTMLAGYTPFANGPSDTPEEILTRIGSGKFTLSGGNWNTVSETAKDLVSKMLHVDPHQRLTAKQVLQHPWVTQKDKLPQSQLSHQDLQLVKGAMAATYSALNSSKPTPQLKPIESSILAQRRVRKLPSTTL
T8 sequence (P22607 23-806): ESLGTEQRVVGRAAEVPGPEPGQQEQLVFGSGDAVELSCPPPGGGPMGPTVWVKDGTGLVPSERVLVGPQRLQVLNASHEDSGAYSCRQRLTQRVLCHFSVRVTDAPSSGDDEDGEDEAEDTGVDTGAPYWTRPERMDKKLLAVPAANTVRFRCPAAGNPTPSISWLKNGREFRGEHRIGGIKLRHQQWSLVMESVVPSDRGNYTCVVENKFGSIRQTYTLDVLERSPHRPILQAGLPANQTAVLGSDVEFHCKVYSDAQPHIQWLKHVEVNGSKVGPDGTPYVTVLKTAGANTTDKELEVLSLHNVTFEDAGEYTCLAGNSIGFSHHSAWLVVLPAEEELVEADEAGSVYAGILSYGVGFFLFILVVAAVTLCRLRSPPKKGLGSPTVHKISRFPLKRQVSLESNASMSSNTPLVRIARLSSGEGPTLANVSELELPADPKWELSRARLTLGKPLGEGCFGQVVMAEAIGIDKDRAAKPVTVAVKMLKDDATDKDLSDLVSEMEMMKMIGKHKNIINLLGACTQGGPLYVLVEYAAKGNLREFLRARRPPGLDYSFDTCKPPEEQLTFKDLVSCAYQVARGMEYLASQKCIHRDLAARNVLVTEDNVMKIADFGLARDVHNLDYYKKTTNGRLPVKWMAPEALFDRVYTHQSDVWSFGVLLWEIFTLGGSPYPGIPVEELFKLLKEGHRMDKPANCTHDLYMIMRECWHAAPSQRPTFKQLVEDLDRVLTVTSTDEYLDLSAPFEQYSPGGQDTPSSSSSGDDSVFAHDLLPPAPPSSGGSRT

inhibition at 10 µM (Abl) [%]	inhibition at 10 µM (c-Src) [%]	inhibition at 10 µM (Bmx) [%]	inhibition at 10 µM (TrkB) [%]	inhibition at 10 µM (Lck) [%]	inhibition at 10 µM (Flt3) [%]	inhibition at 10 µM (FGFR3) [%]	IC50 (purified GST-Flt-3) [nM]	Structure (SMILES)	inhibition at 10 µM (Rsk1) [%]	IC50 (Ba/F3-Flt3-ITD cells) [nM]
81	98	71	99	99	99	–	–	CS(=O)(=O)c1ccc(Nc2nc(N3CCOCC3)nc3c2ncn3-c2cscn2)cc1 [Compound 503, (4-Methanesulfonyl-phenyl)-(2-morpholin-4-yl-9-thiazol-4-yl-9H-purin-6-yl)-amine]	–	–
98	99	86	99	95	100	98	–	CS(=O)(=O)c1ccc(Nc2nc(NCc3ccccn3)nc3c2ncn3-c2cscn2)cc1 [Compound 554, N^6-(4-Methanesulfonyl-phenyl)-N^2-pyridin-2-ylmethyl-9-thiazol-4-yl-9H-purine-2,6-diamine]	–	–
–	–	–	–	–	–	–	7	NC1CCC(Nc2nc(Nc3ccc(C(=O)N4CCCCC4)cc3)c3ncn(-c4ccsc4)c3n2)CC1 (stereo not drawn) [{4-[2-(4-amino-cyclohexylamino)-9-thiophen-3-yl-9H-purin-6-ylamino]-phenyl}-piperidin-1-yl-methanone]	–	5

Structure (SMILES)	inhibition at 10 µM (Abl) [%]	inhibition at 10 µM (c-Src) [%]	inhibition at 10 µM (Bmx) [%]	inhibition at 10 µM (TrkB) [%]	inhibition at 10 µM (Lck) [%]	inhibition at 10 µM (Flt3) [%]	inhibition at 10 µM (FGFR3) [%]	IC50 (purified GST-Flt-3) [nM]	inhibition at 10 µM (Rsk1) [%]	IC50 (Ba/F3-Flt3-ITD cells) [nM]
CN1CCC(N(C)c2nc(Nc3ccc(N4CCOCC4)cc3)c3ncn(-c4cscn4)c3n2)CC1 [Compound 539, N^2-Methyl-N^2-(1-methyl-piperidin-4-yl)-N^6-(4-morpholin-4-yl-phenyl)-9-thiazol-4-yl-9H-purine-2,6-diamine]	–	97	90	99	99	100	–	–	82	–
